From article PMC9965614, “Computer-Aided Virtual Screening and In Vitro Validation of Biomimetic Tyrosinase Inhibitory Peptides from Abalone Peptidome” (International Journal of Molecular Sciences, 2023)
Where a SMILES comes first, the peptide text is derived from it.

Key:
[1] = molecular target: mushroom tyrosinase (Agaricus bisporus, UniProt C7FF04); test: Mushroom tyrosinase activity assay (L-DOPA oxidation, diphenolase); type: biochemical; details: L-DOPA substrate, up to 500 μM
Experimental: The inhibitory effect on mushroom tyrosinase was determined spectrophotometrically via L-DOPA oxidation. The reaction mixture consisted of 20 μL of hdTIPs, 140 μL of 100 mM sodium phosphate buffer (pH6.8) and 40 μL of 200 units/mL mushroom tyrosinase (EC 1.14.18.1; Sigma, Saint Louis, USA) placed in a 96-well microplate, then incubated for 10 min. After that, 20 μL of 5mM L-DOPA were mixed into each well over 20 min. Furthermore, the amount of dopachrome produced absorbance was measured at 475 nm. In addition, KA was used as the positive control at the same concentrations and conditions to hdTIPs. This method was modified from Kim et al..
The mushroom tyrosinase inhibitory activity was calculated with the following equation: % Mushroom tyrosinase inhibition=[(C)−(S)/(C)]×100, where, C represents the OD475 of control and S is the OD475 of sample. All experiments were performed in triplicate to determine the IC50 of the samples.

[2] = molecular target: T1, cellular tyrosinase (Mus musculus, UniProt P11344); test: Intracellular (cellular) tyrosinase activity assay in UV-induced B16F10 cells; type: cell-based, murine; details: 70 μM peptide, UVA/UVB-induced B16F10 cells, triplicate
T1 construct: the harvested cells were lysed in cell extraction buffer; endogenous in cells; host or cells: B16F10 murine melanoma cells, UVA/UVB-induced
T1 sequence (P11344 19-533): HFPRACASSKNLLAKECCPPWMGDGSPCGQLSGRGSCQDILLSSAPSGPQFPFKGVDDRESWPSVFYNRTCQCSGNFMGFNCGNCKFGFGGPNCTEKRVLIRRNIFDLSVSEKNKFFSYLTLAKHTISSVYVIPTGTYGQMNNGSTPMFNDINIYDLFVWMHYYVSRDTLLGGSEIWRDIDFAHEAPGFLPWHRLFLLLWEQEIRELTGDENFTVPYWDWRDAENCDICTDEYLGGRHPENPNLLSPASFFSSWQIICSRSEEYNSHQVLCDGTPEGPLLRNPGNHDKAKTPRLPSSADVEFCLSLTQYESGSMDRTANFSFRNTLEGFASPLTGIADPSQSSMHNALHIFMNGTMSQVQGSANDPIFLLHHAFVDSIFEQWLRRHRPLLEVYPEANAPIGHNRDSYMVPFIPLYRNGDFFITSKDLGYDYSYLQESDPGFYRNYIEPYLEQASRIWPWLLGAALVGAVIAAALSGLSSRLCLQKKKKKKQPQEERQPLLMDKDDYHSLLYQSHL
Experimental: Tyrosinase activity was measured based on Dopa oxidase activity by estimating the dopachrome production according to the method by Qiao et al., 2012 [54], with some modifications. B16F10 cells were seeded at 5 × 10^6 cells/mL in 24-well plates. […] Each well was then washed and replaced with PBS 600 μL and induced with UVA (314-400 nm, 3.0 W) and UVB (280-315 nm, 13.6 W) using OSRAM (Ultra-Vitalux, Germany) for 22 s (0.32 J/cm^2). After that, the cells were incubated with medium 600 μL/well for a further 24 h. Then, the cells were trypsinized and the harvested cells were lysed in cell extraction buffer. After normalized protein concentration, 10 μL of each lysate supernatant was aliquoted into a 96-well plate and shaking incubated in dark conditions with 1 mM L-DOPA 90 μL in PBS at 37 °C at 280 rpm for 10 min. The absorbance was measured at 475 nm and all experiments were performed in triplicate to determine the IC50 of the samples. The cellular tyrosinase inhibitory activity was calculated with the following equation: % Cellular tyrosinase inhibition=[(C)-(S)/(C)]×100, where, C are defined as in the previous section.

[3] = tested on: B16F10 melanoma cells; test: Melanin content assay in UV-induced B16F10 cells; type: cell-based, murine; details: 70 μM peptide, UVA/UVB-induced B16F10 cells, triplicate
Experimental: Cellular melanin content was measured using a modified method by Jegal, et al.. B16F10 cells were seeded at 5 × 10^5 cells/mL in 24-well plates. […] After that, the cells in each well were washed and replaced by PBS. The UV stimulation process was performed by the exposure to UVA (314-400 nm, 3.0 W) and UVB (280-315 nm, 13.6 W) for 22 s. Then, PBS was replaced with media and further incubated for 24 h. The UV-stimulated cells were then trypsinized and centrifuged at 1500 rpm for 5 min. The cell pellet was then dissolved in 2 M NaOH at 60 °C for 1 h to solubilize the melanin. The melanin content was estimated by measuring the absorbance at 405 nm. The melanin content was calculated with the following equation: % Melanin content=(S)/(C)×100, where, S is the OD405 of sample and C represents the OD405 of control. All experiments were performed in triplicate.

[4] = tested on: superoxide dismutase (SOD); test: Antioxidative enzyme activity, superoxide dismutase (assay kit); type: cell-based, murine; details: 70 μM, UV-exposed B16F10 cells
Experimental: (§1) To determine the antioxidant activity, the centrifugation precipitate from Section 4.6 was dissolved in 1 mL of 1 M NaOH containing 10% DMSO at 80 °C for 1 h. Various assay kits, all from Beijing Solarbio Science & Technology Co., Ltd., Beijing, China, were used to measure the quantity of reduced reactive oxygen species (ROS) and the activity of superoxide dismutase (SOD), catalase (CAT), and glutathione peroxidase (GPx) according to the methods by Hu et al..

[5] = tested on: glutathione peroxidase (GPx); test: Antioxidative enzyme activity, glutathione peroxidase (assay kit); type: cell-based, murine; details: 70 μM, UV-exposed B16F10 cells
Experimental: as §1

[6] = tested on: tyrosinase; details: KNN machine learning model, 425 sequence features; cited from earlier work
Source text: (§2) Table 1 Abalone predicted TIPs by KNN and RF-based predictors and the predicted antioxidant scores by AnOxPePred 1.0 program. | column: Predicted Anti-Tyrosinase Probability / KNN Predictor || Previously, our research team proposed the in-house machine learning-based anti-tyrosinase prediction tool, which provides thousands of potential peptides. The probability scores of all 1079 peptides from KNN-based and RF-based models can be found in the supplementary file of the previous article by Kongsompong et al.. The KNN and RF predictors were trained and tested against 133 peptides with known anti-tyrosinase properties with 97% and 99% accuracy. The predictions of both models were based on the numeric matrix of 425 features calculated from amino acid composition (20 featur ...

[7] = tested on: tyrosinase; details: RF machine learning model, 425 sequence features; cited from earlier work
Source text: as §2, with “/ RF” for “/ KNN”

mushroom tyrosinase, sequence (C7FF04 1-392): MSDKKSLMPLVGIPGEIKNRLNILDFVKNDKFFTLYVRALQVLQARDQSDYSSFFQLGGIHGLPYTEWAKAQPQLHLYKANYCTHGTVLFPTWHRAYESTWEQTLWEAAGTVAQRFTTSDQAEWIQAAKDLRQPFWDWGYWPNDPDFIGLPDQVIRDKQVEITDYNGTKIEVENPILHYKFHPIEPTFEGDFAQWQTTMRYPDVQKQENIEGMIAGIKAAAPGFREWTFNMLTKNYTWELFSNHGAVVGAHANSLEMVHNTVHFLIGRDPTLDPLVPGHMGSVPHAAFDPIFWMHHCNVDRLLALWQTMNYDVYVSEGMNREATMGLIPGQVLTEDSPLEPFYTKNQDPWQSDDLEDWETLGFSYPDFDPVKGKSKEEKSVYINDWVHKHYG
mushroom tyrosinase, sequence (G1K3P4 1-150 partner): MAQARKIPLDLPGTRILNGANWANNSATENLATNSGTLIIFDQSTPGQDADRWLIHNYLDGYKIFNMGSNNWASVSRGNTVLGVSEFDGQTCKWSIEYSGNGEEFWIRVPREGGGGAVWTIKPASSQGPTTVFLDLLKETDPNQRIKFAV

## CSCC[C@H](NC(=O)[C@H](CCC(N)=O)NC(=O)[C@H](CO)NC(=O)[C@@H](N)[C@@H](C)O)C(=O)N[C@@H](CO)C(=O)N[C@@H](CCCNC(=N)N)C(=O)N[C@@H](CO)C(=O)N[C@@H](CO)C(=O)N[C@@H](CO)C(=O)N[C@@H](CCCNC(=N)N)C(=O)O [KNN2] (H-TSQMSRSSSR-OH; N-terminus and C-terminus assumed)
[1]
  inhibitory effect on mushroom tyrosinase (diphenolase activity): did not show any inhibition
[2]
  inhibition of cellular tyrosinase: fourth-most-effective inhibitor
[3]
  inhibition of melanin content: fourth-most-effective inhibitor
[4]
  effect on SOD activity: elevated
[5]
  effect on GPx activity: elevated
[6]
  Predicted Anti-Tyrosinase Probability KNN Predictor: 1.00
[7]
  Predicted Anti-Tyrosinase Probability RF Predictor: 0.37
